Results taken from ChEMBL document CHEMBL1201862, “PubChem BioAssay data set” (2004).
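Grown in 96-well plates, cells were treated for 48 hours with each compound at five concentrations. Insufficient inhibition: endpoint recorded as highest concentration tested. Abbreviation: GI50, concentration required for 50% inhibition of growth.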 The source made the active and inactive calls. Cut-off read from the data, not from the text of the source: active = GI50 up to about 1.1 µM and inactive = higher.

Tests used:
Experiment in all cases: growth of human tumour cells (NCI), 48 h
786-0 = test system: 786-0
A549 = test system: A549
ACHN = test system: ACHN
CAKI-1 = test system: CAKI-1
CCRF-CEM = test system: CCRF-CEM
COLO 205 = test system: COLO 205
DLD-1 = test system: DLD-1
DMS-114 = test system: DMS-114
EKVX = test system: EKVX
HCC 2998 = test system: HCC 2998
HCT-116 = test system: HCT-116
HCT-15 = test system: HCT-15
HL-60 = test system: HL-60
HOP-18 = test system: HOP-18
HOP-62 = test system: HOP-62
HOP-92 = test system: HOP-92
HT-29 = test system: HT-29
IGROV-1 = test system: IGROV-1
K562 = test system: K562
KM-20L2 = test system: KM-20L2
KM12 = test system: KM12
LOX IMVI = test system: LOX IMVI
LXFL 529 = test system: LXFL 529
M14 = test system: M14
M19-MEL = test system: M19-MEL
MOLT-4 = test system: MOLT-4
Malme-3M = test system: Malme-3M
NCI-H226 = test system: NCI-H226
NCI-H23 = test system: NCI-H23
NCI-H460 = test system: NCI-H460
NCI-H522 = test system: NCI-H522
OVCAR-3 = test system: OVCAR-3
OVCAR-4 = test system: OVCAR-4
OVCAR-5 = test system: OVCAR-5
OVCAR-8 = test system: OVCAR-8
RPMI-8226 = test system: RPMI-8226
SF-268 = test system: SF-268
SF-295 = test system: SF-295
SF-539 = test system: SF-539
SK-MEL-28 = test system: SK-MEL-28
SK-MEL-2 = test system: SK-MEL-2
SK-MEL-5 = test system: SK-MEL-5
SK-OV-3 = test system: SK-OV-3
SNB-19 = test system: SNB-19
SNB-75 = test system: SNB-75
SNB-78 = test system: SNB-78
SR = test system: SR
SW-620 = test system: SW-620
TK-10 = test system: TK-10
U-251 = test system: U-251
UACC-257 = test system: UACC-257
UACC-62 = test system: UACC-62
UO-31 = test system: UO-31
XF498 = test system: XF498
A498 = test system: A498
DMS-273 = test system: DMS-273
RXF 393 = test system: RXF 393
SN12C = test system: SN12C
MCF7 = test system: MCF7
NCI/ADR-RES = test system: NCI/ADR-RES

`CC1=C2C(=O)O[C@@H](c3ccoc3)[C@]2(C)CCC1` [FRAXINELLONE] was tested, and the GI50 (786-0) was > 100 µM (inactive), the GI50 (A549) was > 100 µM (inactive) and the GI50 (ACHN) was > 100 µM (inactive). For the same compound, the GI50 (CAKI-1) was > 100 µM (inactive), the GI50 (CCRF-CEM) was > 100 µM (inactive) and the GI50 (COLO 205) was > 100 µM (inactive). The GI50 (DLD-1) was > 100 µM (inactive), the GI50 (DMS-114) was > 100 µM (inactive) and the GI50 (EKVX) was > 100 µM (inactive). For the same compound, the GI50 (HCC 2998) was > 100 µM (inactive), the GI50 (HCT-116) was > 100 µM (inactive) and the GI50 (HCT-15) was greater than 100 µM. For the same compound, the GI50 (HL-60) was > 100 µM (inactive), the GI50 (HOP-18) was > 100 µM (inactive) and the GI50 (HOP-62) was > 100 µM (inactive). For the same compound, the GI50 (HOP-92) was 23.1 µM (inactive), the GI50 (HT-29) was > 100 µM (inactive) and the GI50 (IGROV-1) was > 100 µM (inactive). The GI50 (K562) was > 100 µM (inactive), the GI50 (KM-20L2) was > 100 µM (inactive) and the GI50 (KM12) was > 100 µM (inactive). For the same compound, the GI50 (LOX IMVI) was > 100 µM (inactive), the GI50 (LXFL 529) was > 100 µM (inactive) and the GI50 (M14) was > 100 µM (inactive). The GI50 (M19-MEL) was > 100 µM (inactive), the GI50 (MOLT-4) was > 100 µM (inactive) and the GI50 (Malme-3M) was > 100 µM (inactive). The GI50 (NCI-H226) was > 100 µM (inactive), the GI50 (NCI-H23) was > 100 µM (inactive) and the GI50 (NCI-H460) was > 100 µM (inactive). For the same compound, the GI50 (NCI-H522) was > 100 µM (inactive), the GI50 (OVCAR-3) was > 100 µM (inactive) and the GI50 (OVCAR-4) was > 100 µM (inactive). For the same compound, the GI50 (OVCAR-5) was > 100 µM (inactive), the GI50 (OVCAR-8) was > 100 µM (inactive) and the GI50 (RPMI-8226) was > 100 µM (inactive). The GI50 (SF-268) was > 100 µM (inactive), the GI50 (SF-295) was > 100 µM (inactive) and the GI50 (SF-539) was > 100 µM (inactive). For the same compound, the GI50 (SK-MEL-28) was > 100 µM (inactive), the GI50 (SK-MEL-2) was > 100 µM (inactive) and the GI50 (SK-MEL-5) was > 100 µM (inactive). For the same compound, the GI50 (SK-OV-3) was > 100 µM (inactive), the GI50 (SNB-19) was > 100 µM (inactive) and the GI50 (SNB-75) was 77.1 µM (inactive). For the same compound, the GI50 (SNB-78) was > 100 µM (inactive), the GI50 (SR) was > 100 µM (inactive) and the GI50 (SW-620) was > 100 µM (inactive). For the same compound, the GI50 (TK-10) was > 100 µM (inactive), the GI50 (U-251) was > 100 µM (inactive) and the GI50 (UACC-257) was > 100 µM (inactive). The GI50 (UACC-62) was > 100 µM (inactive), the GI50 (UO-31) was > 100 µM (inactive) and the GI50 (XF498) was > 100 µM (inactive).
`CC(=O)OCC1OC(N2C(=O)C(=O)c3cc(C)ccc32)C(OC(C)=O)C(OC(C)=O)C1OC(C)=O` (stereo not drawn) was tested, and the GI50 (786-0) was 38.9 µM (inactive), the GI50 (A498) was > 100 µM (inactive) and the GI50 (A549) was > 100 µM (inactive). The GI50 (ACHN) was 50.9 µM (inactive), the GI50 (CAKI-1) was > 100 µM (inactive) and the GI50 (CCRF-CEM) was 49.5 µM (inactive). For the same compound, the GI50 (COLO 205) was 94.6 µM (inactive), the GI50 (DLD-1) was 56 µM (inactive) and the GI50 (DMS-114) was > 100 µM (inactive). The GI50 (DMS-273) was > 100 µM (inactive), the GI50 (EKVX) was > 100 µM (inactive) and the GI50 (HCT-116) was 59.7 µM (inactive). The GI50 (HCT-15) was 52.8 µM, the GI50 (HL-60) was 22.4 µM (inactive) and the GI50 (HOP-18) was > 100 µM (inactive). For the same compound, the GI50 (HOP-62) was > 100 µM (inactive), the GI50 (HOP-92) was 51.5 µM (inactive) and the GI50 (HT-29) was 37.2 µM (inactive). For the same compound, the GI50 (IGROV-1) was 46 µM (inactive), the GI50 (K562) was > 100 µM (inactive) and the GI50 (KM-20L2) was 60.5 µM (inactive). For the same compound, the GI50 (KM12) was > 100 µM (inactive), the GI50 (LOX IMVI) was 17.1 µM (inactive) and the GI50 (LXFL 529) was > 100 µM (inactive). The GI50 (M14) was 66.5 µM (inactive), the GI50 (M19-MEL) was 50.7 µM (inactive) and the GI50 (MOLT-4) was 29 µM (inactive). The GI50 (Malme-3M) was > 100 µM (inactive), the GI50 (NCI-H226) was > 100 µM (inactive) and the GI50 (NCI-H23) was 52.1 µM (inactive). The GI50 (NCI-H460) was > 100 µM (inactive), the GI50 (NCI-H522) was 36.3 µM (inactive) and the GI50 (OVCAR-3) was 99.3 µM (inactive). For the same compound, the GI50 (OVCAR-4) was > 100 µM (inactive), the GI50 (OVCAR-5) was > 100 µM (inactive) and the GI50 (OVCAR-8) was 63.4 µM (inactive). The GI50 (RPMI-8226) was 29.4 µM (inactive), the GI50 (RXF 393) was 39.8 µM (inactive) and the GI50 (SF-268) was 49.5 µM (inactive). For the same compound, the GI50 (SF-295) was > 100 µM (inactive), the GI50 (SF-539) was > 100 µM (inactive) and the GI50 (SK-MEL-28) was 32.5 µM (inactive). The GI50 (SK-MEL-2) was > 100 µM (inactive), the GI50 (SK-MEL-5) was 58.7 µM (inactive) and the GI50 (SK-OV-3) was > 100 µM (inactive). For the same compound, the GI50 (SN12C) was 65.6 µM (inactive), the GI50 (SNB-19) was > 100 µM (inactive) and the GI50 (SNB-75) was > 100 µM (inactive). The GI50 (SNB-78) was > 100 µM (inactive), the GI50 (SR) was 15.5 µM (inactive) and the GI50 (SW-620) was > 100 µM (inactive). The GI50 (TK-10) was > 100 µM (inactive), the GI50 (U-251) was > 100 µM (inactive) and the GI50 (UACC-257) was > 100 µM (inactive). For the same compound, the GI50 (UACC-62) was 37.4 µM (inactive) and the GI50 (UO-31) was > 100 µM (inactive).
`O=NN(CCF)C(=O)NC1CC2CCC1C2` (stereo not drawn) was tested, and the GI50 (A498) was > 100 µM (inactive), the GI50 (A549) was > 100 µM (inactive) and the GI50 (CAKI-1) was > 100 µM (inactive). The GI50 (CCRF-CEM) was 38.3 µM (inactive), the GI50 (COLO 205) was > 100 µM (inactive) and the GI50 (DLD-1) was > 87.7 µM (inactive). For the same compound, the GI50 (DMS-114) was > 100 µM (inactive), the GI50 (DMS-273) was > 100 µM (inactive) and the GI50 (EKVX) was > 100 µM (inactive). For the same compound, the GI50 (HCC 2998) was > 100 µM (inactive), the GI50 (HCT-116) was > 100 µM (inactive) and the GI50 (HCT-15) was greater than 74.3 µM. For the same compound, the GI50 (HL-60) was 38.7 µM (inactive), the GI50 (HOP-18) was > 100 µM (inactive) and the GI50 (HOP-62) was > 84.1 µM (inactive). The GI50 (HOP-92) was > 100 µM (inactive), the GI50 (HT-29) was > 100 µM (inactive) and the GI50 (IGROV-1) was > 72.9 µM (inactive). The GI50 (K562) was > 53 µM (inactive), the GI50 (KM-20L2) was > 100 µM (inactive) and the GI50 (KM12) was > 100 µM (inactive). For the same compound, the GI50 (LOX IMVI) was 84.7 µM (inactive), the GI50 (M19-MEL) was > 100 µM (inactive) and the GI50 (MCF7) was 98.9 µM (inactive). The GI50 (MOLT-4) was > 100 µM (inactive), the GI50 (Malme-3M) was > 100 µM (inactive) and the GI50 (NCI-H23) was > 100 µM (inactive). For the same compound, the GI50 (NCI-H460) was > 100 µM (inactive), the GI50 (NCI-H522) was 73.6 µM (inactive) and the GI50 (NCI/ADR-RES) was > 100 µM (inactive). For the same compound, the GI50 (OVCAR-3) was > 100 µM (inactive), the GI50 (OVCAR-4) was > 100 µM (inactive) and the GI50 (OVCAR-5) was > 100 µM (inactive). The GI50 (OVCAR-8) was > 100 µM (inactive), the GI50 (RPMI-8226) was > 54.3 µM (inactive) and the GI50 (RXF 393) was > 100 µM (inactive). The GI50 (SF-268) was > 100 µM (inactive), the GI50 (SF-295) was > 100 µM (inactive) and the GI50 (SF-539) was > 100 µM (inactive). For the same compound, the GI50 (SK-MEL-28) was > 100 µM (inactive), the GI50 (SK-MEL-2) was > 100 µM (inactive) and the GI50 (SK-MEL-5) was > 100 µM (inactive). For the same compound, the GI50 (SK-OV-3) was > 100 µM (inactive), the GI50 (SN12C) was > 100 µM (inactive) and the GI50 (SNB-19) was > 100 µM (inactive). The GI50 (SNB-75) was > 100 µM (inactive), the GI50 (SNB-78) was > 100 µM (inactive) and the GI50 (SW-620) was > 100 µM (inactive). For the same compound, the GI50 (U-251) was > 100 µM (inactive), the GI50 (UACC-257) was > 100 µM (inactive) and the GI50 (UACC-62) was 86.9 µM (inactive). For the same compound, the GI50 (UO-31) was > 100 µM (inactive) and the GI50 (XF498) was < 0.01 µM (active).
